According to patent US9102648B1, “Bioavailable diacylhydrazine ligands for modulating the expression of exogenous genes via an ecdysone receptor complex” (Intrexon Corporation, priority 2003, dated 2015):
Read-outs that look alike come from different tables or passages of the source.

Experiments:
[1] = target: GAL4 DBD-CfEcR(DEF)/VP16AD-MmRXRE (Choristoneura fumiferana, UniProt O77240); test: 13B3 Assay (CHO stable cell line, luciferase reporter); settings: for Fold Induction, 13B3 Assay, 33 uM: 33 uM ligand; for 13B3 assay Rel Max FI: maximum fold induction at any concentration relative to that of GS-E ligand, CHO 13B3 cells; for fold induction at 3.3 µM: read-out: Fold Induction, 13B3 Assay, 3.3 uM; for fold induction at 33 µM: read-out: Fold Induction, 13B3 Assay, 33 uM
Outline: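 Ligands dosed at 8 levels from 33 to 0.01 μM (DMSO stocks diluted 300-fold) onto the 13B3 CHO line carrying GAL4-DBD/CfEcR-DEF, VP16/MmRXR-DE and a GAL4-responsive luciferase gene.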

[2] = target: GAL4 DBD (1-147)-CfEcR(DEF)/VP16AD-βRXREF-LmUSPEF (Choristoneura fumiferana, UniProt O77240); test: cell-based; settings: for Fold Induction, 27-63 Assay, 3.3 uM: 3.3 uM ligand; for Fold Induction, 27-63 Assay, 3.3 uM / Fold Induction, 27-63 Assay, 33 uM: RLU ligand treated / RLU DMSO treated cells; for Fold Induction, 27-63 Assay, 33 uM: 33 uM ligand; for 27-63 assay Rel Max FI: maximum fold induction at any concentration relative to that of GS-E ligand, CHO 27-63 cells; for fold induction at 3.3 µM: read-out: Fold Induction, 27-63 Assay, 3.3 uM; for fold induction at 33 µM: read-out: Fold Induction, 27-63 Assay, 33 uM
[3] = RLU ligand treated / RLU DMSO treated cells, average of two wells
[4] = read-out: 27-63 assay EC50, CHO 27-63 stable cell line, luciferase reporter, average of two wells

| SMILES | Fold Induction, 27-63 Assay, 3.3 uM ([2]; average of two wells) | Fold Induction, 27-63 Assay, 33 uM ([2]; average of two wells) | 27-63 assay Rel Max FI [2] | EC50 [2, 4] [nM] | other results |
| --- | --- | --- | --- | --- | --- |
| CC(=O)c1ccc(C(=O)NN(C(=O)c2cc(C(=O)O)cc(C(=O)O)c2)C(C)(C)C)cc1 [RG-100150] |  |  |  |  | Fold Induction, 13B3 Assay, 33 uM [1, 3]: 1 |
| COc1cc(C(=O)N(NC(=O)c2ccc3c(c2C)OCCO3)C(C)(C)C)cc(OC)c1O [RG-115009, 4-Hydroxy-3,5-dimethoxy-benzoic acid N-tert-butyl-N′-(5-methyl-2,3-dihydro-benzo[1,4]dioxine-6-carbonyl)-hydrazide] |  |  |  |  | EC50 [1]: 18900 nM; 13B3 assay Rel Max FI [1]: 0.917; fold induction at 3.3 µM [1]: 19; fold induction at 33 µM [1]: 2550 |
| CCc1c(C(=O)NN(C(=O)c2ccc(F)c(C(F)(F)F)c2)C(C)(C)C)ccc2c1OCCO2 [RG-115280] | 9 | 422 | 0.254 | 11000 |  |
| COc1ccc(C(=O)N(NC(=O)c2ccc3c(c2C)OCCO3)C(C)(C)C)c(OC)n1 [RG-115517, 2,6-dimethoxy-nicotinic acid N-tert-butyl-N′-(5-methyl-2,3-dihydro-benzo[1,4]dioxine-6-carbonyl)-hydrazide] |  |  |  |  | EC50 [1]: 355 nM; 13B3 assay Rel Max FI [1]: 0.675; fold induction at 3.3 µM [1]: 8400; fold induction at 33 µM [1]: 12000 |
| Cc1c(C(=O)NN(C(=O)c2cc(F)c(F)c(F)c2)C(C)(C)C)ccc2c1CCCO2 [RG-115575, 3,4,5-Trifluoro-benzoic acid N-tert-butyl-N′-(5-methyl-chroman-6-carbonyl)-hydrazide] |  |  |  |  | EC50 [1]: 271 nM; 13B3 assay Rel Max FI [1]: 0.641; fold induction at 3.3 µM [1]: 3080; fold induction at 33 µM [1]: 865 |
| COc1cnccc1C(=O)N(NC(=O)c1cccc(O)c1C)C(C)(C)C [RG-115595] |  |  |  |  | Fold Induction, 13B3 Assay, 3.3 uM ([1]; 3.3 uM ligand, RLU ligand treated / RLU DMSO treated cells, average of two wells): 6; Fold Induction, 13B3 Assay, 33 uM [1, 3]: 1381 |
| CCC(N(NC(=O)c1cccc(OC)c1C)C(=O)c1cc(C)cc(C)c1)C(C)(C)C (stereo not drawn) [RG-115819, 3,5-dimethyl-benzoic acid N-(1-ethyl-2,2-dimethyl-propyl)-N′-(3-methoxy-2-methyl-benzoyl)-hydrazide] |  |  | 1.045 |  | EC50 [2]: 25 nM; fold induction at 3.3 µM [2]: 1970; fold induction at 33 µM [2]: 2370 |
| CCC(N(NC(=O)c1cccc(OC)c1C)C(=O)c1cc(OC)c(C)c(OC)c1)C(C)(C)C (stereo not drawn) [RG-115820, 3,5-dimethoxy-4-methyl-benzoic acid N-(1-ethyl-2,2-dimethyl-propyl)-N′-(3-methoxy-2-methyl-benzoyl)-hydrazide] |  |  | 1.270 |  | EC50 [2]: 193 nM; fold induction at 3.3 µM [2]: 2860; fold induction at 33 µM [2]: 1970 |
| CCCC(N(NC(=O)c1cccc(OC)c1C)C(=O)c1cc(C)cc(C)c1)C(C)(C)C (stereo not drawn) [RG-115823] | 2093 | 1025 | 1.069 | 11 |  |
| CCCC(N(NC(=O)c1cccc(OC)c1C)C(=O)c1cc(OC)c(C)c(OC)c1)C(C)(C)C (stereo not drawn) [RG-115824] | 2675 | 948 | 1.218 | 36 |  |
| CCCC(N(NC(=O)c1cccc(OC)c1CC)C(=O)c1cc(OC)c(C)c(OC)c1)C(C)(C)C (stereo not drawn) [RG-115829, 3,5-Dimethoxy-4-methyl-benzoic acid N-(1-tert-butyl-butyl)-N′-(2-ethyl-3-methoxy-benzoyl)-hydrazide] |  |  | 1.264 |  | EC50 [2]: 35 nM; fold induction at 3.3 µM [2]: 2600; fold induction at 33 µM [2]: 45 |
| CCCC(N(NC(=O)c1cccc(OC)c1CC)C(=O)c1cc(C)cc(C)c1)C(C)(C)C (stereo not drawn) [RG-115830] | 2287 | 353 | 1.049 | 36 |  |
| CCc1c(OC)cccc1C(=O)NN(C(=O)c1cc(OC)c(C)c(OC)c1)C(CC)C(C)(C)C (stereo not drawn) [RG-115831] | 2063 | 1435 | 1.366 | 96 |  |
| CCc1c(OC)cccc1C(=O)NN(C(=O)c1cc(C)cc(C)c1)C(CC)C(C)(C)C (stereo not drawn) [RG-115832] | 2063 | 1435 | 1.075 | 35 |  |
